Reference: patent US20240381872A1, “SUBSTITUTED 2,3-DIHYDRO[1,3]THIAZOLO[4,5-B]PYRIDINES, SALTS THEREOF AND THEIR USE AS HERBICIDALLY ACTIVE SUBSTANCES” (BAYER AKTIENGESELLSCHAFT, priority 2021, published 2024)

Experiments:
Format in all cases: in vivo
[1] = system: Alopecurus myosuroides (ALOMY); assay: Herbicidal pre-emergence action, section A (Table A2); conditions: application rate 1280 g/ha; visual grading after ca. 3 weeks vs untreated controls
Excerpt: (§1) Seeds of mono- and dicotyledonous weed plants were sown in plastic pots (double sowings with one species of mono- and one species of dicotyledonous weed plants per pot), in sandy loam, and covered with soil. The compounds according to the invention, formulated in the form of wettable powders (WP) or as emulsifiable concentrates (EC), were applied to the surface of the covering soil as aqueous suspension or emulsion, with the addition of 0.5% of an additive, at an application rate of 600 l of water per hectare (converted). Following treatment, the pots were placed in a greenhouse and kept under optimum growth conditions for the test plants. The visual grading of the damage to the test plants was carried out after ca. 3 weeks in comparison to untreated controls (herbicidal effect in percent (%): 100% effect=plants have died off, 0% effect=as control plants).

[2] = system: Echinochloa crus-galli (ECHCG); assay: Herbicidal pre-emergence action, section A (Table A3); conditions: visual grading after ca. 3 weeks vs untreated controls; for pre-emergence activity against ECHCG in %: application rate 1280 g/ha
Excerpt: as §1

[3] = system: Kochia scoparia (KCHSC); assay: Herbicidal pre-emergence action, section A (Table A4); conditions: visual grading after ca. 3 weeks vs untreated controls
Excerpt: as §1

[4] = system: Lolium rigidum (LOLRI); assay: Herbicidal pre-emergence action, section A (Table A5); conditions: visual grading after ca. 3 weeks vs untreated controls
Excerpt: as §1

[5] = system: Matricaria inodora (MATIN); assay: Herbicidal pre-emergence action, section A (Table A6); conditions: visual grading after ca. 3 weeks vs untreated controls
Excerpt: as §1

[6] = system: Poa annua (POAAN); assay: Herbicidal pre-emergence action, section A (Table A7); conditions: visual grading after ca. 3 weeks vs untreated controls
Excerpt: as §1

[7] = system: Setaria viridis (SETVI); assay: Herbicidal pre-emergence action, section A (Table A8)
Excerpt: as §1

[8] = system: Stellaria media (STEME); assay: Herbicidal pre-emergence action, section A (Table A9)
Excerpt: as §1

[9] = system: Veronica persica (VERPE); assay: Herbicidal pre-emergence action, section A (Table A10)
Excerpt: as §1

[10] = system: Amaranthus retroflexus (AMARE); assay: Herbicidal pre-emergence action, section A (Table A11)
Excerpt: as §1

[11] = system: Digitaria sanguinalis (DIGSA); assay: Herbicidal pre-emergence action, section A (Table A12)
Excerpt: as §1

[12] = system: Kochia scoparia (KCHSC); assay: Herbicidal post-emergence action, section B (Table B4); conditions: application rate 1280 g/ha; visual rating about 3 weeks after treatment vs untreated controls
Protocol: (§2) Seeds of mono- and dicotyledonous weed plants were placed in plastic pots in sandy loam soil (doubly sown with in each case one species of mono- or dicotyledonous weed plants per pot), covered with soil and cultivated in a greenhouse under controlled growth conditions. 2 to 3 weeks after sowing, the test plants were treated at the one-leaf stage. The compounds of the invention, formulated in the form of wettable powders (WP) or as emulsion concentrates (EC), were applied onto the green parts of the plants as aqueous suspension or emulsion with addition of 0.5% additive at a water application rate of 600 liters per hectare (converted). After the test plants had been kept in the greenhouse under optimum growth conditions for about 3 weeks, the activity of the preparations was rated visually in comparison to untreated controls. For example, 100% activity=the plants have died, 0% activity=like control plants.

[13] = system: Veronica persica (VERPE); assay: Herbicidal post-emergence action, section B (Table B10); conditions: application rate 1280 g/ha; visual rating about 3 weeks after treatment vs untreated controls
Protocol: as §2

[14] = system: Echinochloa crus-galli (ECHCG); assay: Herbicidal post-emergence action, section B (Table B3); conditions: rated visually after about 3 weeks
Protocol: as §2

[15] = system: Setaria viridis (SETVI); assay: Herbicidal post-emergence action, section B (Table B8); conditions: application rate 1280 g/ha, visual rating about 3 weeks after treatment vs untreated controls
Protocol: as §2

[16] = system: Stellaria media (STEME); assay: Herbicidal post-emergence action, section B (Table B9); conditions: application rate 1280 g/ha, visual rating about 3 weeks after treatment vs untreated controls
Protocol: as §2

[17] = system: Amaranthus retroflexus (AMARE); assay: Herbicidal post-emergence action, section B (Table B11); conditions: application rate 1280 g/ha, visual rating about 3 weeks after treatment vs untreated controls
Protocol: as §2

## CC(=O)N1CSc2cc(C)c(-c3cc(F)ccc3F)nc21 [Example I-168]
[1]
  pre-emergence activity against ALOMY in %: 90%
[2]
  pre-emergence activity against ECHCG in %: 100%
[3]; application rate 320 g/ha
  pre-emergence activity against KCHSC in %: 90%
[4]; application rate 320 g/ha
  pre-emergence activity against LOLRI in %: 90%
[5]; application rate 320 g/ha
  pre-emergence activity against MATIN in %: 90%
[6]; application rate 320 g/ha
  pre-emergence activity against POAAN in %: 100%
[7]; application rate 320 g/ha
  pre-emergence activity against SETVI in %: 100%
[8]; application rate 320 g/ha
  pre-emergence activity against STEME in %: 90%
[9]; application rate 320 g/ha
  pre-emergence activity against VERPE in %: 90%
[10]; application rate 320 g/ha
  pre-emergence activity against AMARE in %: 90%
[11]; application rate 320 g/ha
  pre-emergence activity against DIGSA in %: 100%
[12]
  post-emergence activity against KCHSC in %: 90%
[13]
  post-emergence activity against VERPE in %: 90%

## CCCS(=O)(=O)N1CSc2cc(C)c(-c3cccc(Cl)c3F)nc21 [Example I-112]
[6]; application rate 1280 g/ha
  pre-emergence activity against POAAN in %: 100%
[7]; application rate 1280 g/ha
  pre-emergence activity against SETVI in %: 90%
[8]; application rate 1280 g/ha
  pre-emergence activity against STEME in %: 90%
[9]; application rate 1280 g/ha
  pre-emergence activity against VERPE in %: 90%
[10]; application rate 1280 g/ha
  pre-emergence activity against AMARE in %: 90%
[14]; application rate 320 g/ha
  post-emergence activity against ECHCG in %: 100%

## Cc1cc2c(nc1-c1cccc(F)c1F)N(S(C)(=O)=O)CS2 [Example I-147, 5-(2,3-difluorophenyl)-6-methyl-3-(methylsulfonyl)-2,3-dihydro[1,3]thiazolo[4,5-b]pyridine]
[2]; Echinochloa crus-galli, pre-emergence, 504 h, application rate 320 g/ha, read-out: pre-emergence activity against ECHCG in %
  pest or weed control at 320 g/ha: 100%
[3]; Bassia scoparia, pre-emergence, 504 h, application rate 320 g/ha, read-out: pre-emergence activity against KCHSC in %
  pest or weed control at 320 g/ha: 90%
[4]; Lolium rigidum, pre-emergence, 504 h, application rate 1280 g/ha, read-out: pre-emergence activity against LOLRI in %
  pest or weed control at 1280 g/ha: 90%
[5]; Tripleurospermum inodorum, pre-emergence, 504 h, application rate 1280 g/ha, read-out: pre-emergence activity against MATIN in %
  pest or weed control at 1280 g/ha: 90%
[6]; Poa annua, pre-emergence, 504 h, application rate 320 g/ha, read-out: pre-emergence activity against POAAN in %
  pest or weed control at 320 g/ha: 100%
[7]; Setaria viridis, 504 h, application rate 320 g/ha, read-out: pre-emergence activity against SETVI in %
  pest or weed control at 320 g/ha: 100%
[8]; Stellaria media, 504 h, application rate 1280 g/ha, read-out: pre-emergence activity against STEME in %
  pest or weed control at 1280 g/ha: 90%
[9]; Veronica persica, 504 h, application rate 320 g/ha, read-out: pre-emergence activity against VERPE in %
  pest or weed control at 320 g/ha: 90%
[10]; Amaranthus retroflexus, 504 h, application rate 320 g/ha, read-out: pre-emergence activity against AMARE in %
  pest or weed control at 320 g/ha: 90%
[11]; Digitaria sanguinalis, 504 h, application rate 320 g/ha, read-out: pre-emergence activity against DIGSA in %
  pest or weed control at 320 g/ha: 90%
[15]; Setaria viridis, post-emergence, 504 h, read-out: post-emergence activity against SETVI in %
  pest or weed control at 1280 g/ha: 90%
[16]; Stellaria media, post-emergence, 504 h, read-out: post-emergence activity against STEME in %
  pest or weed control at 1280 g/ha: 90%
[17]; Amaranthus retroflexus, post-emergence, 504 h, read-out: post-emergence activity against AMARE in %
  pest or weed control at 1280 g/ha: 90%

## CCCS(=O)(=O)N1CSc2cc(C)c(-c3cccc(F)c3F)nc21 [Example I-145]
[1]
  pre-emergence activity against ALOMY in %: 90%
[2]
  pre-emergence activity against ECHCG in %: 100%
[3]; application rate 320 g/ha
  pre-emergence activity against KCHSC in %: 90%
[4]; application rate 1280 g/ha
  pre-emergence activity against LOLRI in %: 100%
[5]; application rate 1280 g/ha
  pre-emergence activity against MATIN in %: 90%
[6]; application rate 320 g/ha
  pre-emergence activity against POAAN in %: 100%
[7]; application rate 1280 g/ha
  pre-emergence activity against SETVI in %: 100%
[8]; application rate 320 g/ha
  pre-emergence activity against STEME in %: 90%
[9]; application rate 1280 g/ha
  pre-emergence activity against VERPE in %: 90%
[10]; application rate 1280 g/ha
  pre-emergence activity against AMARE in %: 90%
[11]; application rate 1280 g/ha
  pre-emergence activity against DIGSA in %: 100%
[14]; application rate 1280 g/ha
  post-emergence activity against ECHCG in %: 90%
[16]
  post-emergence activity against STEME in %: 90%

## COC(=O)CCC(=O)N1CSc2cc(C)c(-c3cccc(F)c3F)nc21 [Example I-153]
[2]
  pre-emergence activity against ECHCG in %: 90%
[3]; application rate 320 g/ha
  pre-emergence activity against KCHSC in %: 90%
[4]; application rate 320 g/ha
  pre-emergence activity against LOLRI in %: 90%
[5]; application rate 1280 g/ha
  pre-emergence activity against MATIN in %: 90%
[6]; application rate 1280 g/ha
  pre-emergence activity against POAAN in %: 100%
[7]; application rate 1280 g/ha
  pre-emergence activity against SETVI in %: 100%
[8]; application rate 320 g/ha
  pre-emergence activity against STEME in %: 90%
[9]; application rate 1280 g/ha
  pre-emergence activity against VERPE in %: 90%
[10]; application rate 320 g/ha
  pre-emergence activity against AMARE in %: 90%
[11]; application rate 320 g/ha
  pre-emergence activity against DIGSA in %: 90%
[15]
  post-emergence activity against SETVI in %: 90%
[16]
  post-emergence activity against STEME in %: 90%

## CCOC(=O)c1cc2c(nc1-c1ccccc1F)NCS2 [Example I-004]
[2]
  pre-emergence activity against ECHCG in %: 100%
[3]; application rate 1280 g/ha
  pre-emergence activity against KCHSC in %: 90%
[5]; application rate 1280 g/ha
  pre-emergence activity against MATIN in %: 90%
[6]; application rate 1280 g/ha
  pre-emergence activity against POAAN in %: 100%
[7]; application rate 1280 g/ha
  pre-emergence activity against SETVI in %: 100%
[14]; application rate 1280 g/ha
  post-emergence activity against ECHCG in %: 90%
[12]
  post-emergence activity against KCHSC in %: 90%
[13]
  post-emergence activity against VERPE in %: 90%
[17]
  post-emergence activity against AMARE in %: 100%

## CS(=O)(=O)N1CSc2cc(Br)c(-c3cccc(Cl)c3F)nc21 [Example I-116]
[1]
  pre-emergence activity against ALOMY in %: 90%
[7]; application rate 1280 g/ha
  pre-emergence activity against SETVI in %: 90%
[9]; application rate 1280 g/ha
  pre-emergence activity against VERPE in %: 90%
[12]
  post-emergence activity against KCHSC in %: 90%
